Article PMC7216909 (Chembiochem, 2020)

Molecular target: T1, FOYE-1 (Ferrovum sp. JA12, UniProt A0A0R0LNE8)
T1 sequence (A0A0R0LNE8 1-354): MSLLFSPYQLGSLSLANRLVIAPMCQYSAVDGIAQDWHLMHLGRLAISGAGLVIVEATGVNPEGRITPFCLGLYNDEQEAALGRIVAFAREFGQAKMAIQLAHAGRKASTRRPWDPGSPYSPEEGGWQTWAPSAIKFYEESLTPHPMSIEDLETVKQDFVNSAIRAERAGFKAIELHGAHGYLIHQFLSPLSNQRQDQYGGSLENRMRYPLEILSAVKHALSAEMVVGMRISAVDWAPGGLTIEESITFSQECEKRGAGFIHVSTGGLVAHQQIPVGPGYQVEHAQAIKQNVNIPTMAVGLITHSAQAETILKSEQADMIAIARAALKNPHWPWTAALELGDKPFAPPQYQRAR
Assay: FMN quantification at […] nm in purified protein
Assay type: binding
Details: co-purified flavin cofactor; partly saturated holoprotein

`Cc1cc2nc3c(=O)[nH]c(=O)nc-3n(C[C@H](O)[C@H](O)[C@H](O)COP(=O)(O)O)c2cc1C` [FMN] was tested, and the FMN saturation was “found to be only partially saturated with the flavin mononucleotide (FMN) cofactor”.
